In US9617311B2, “Use of PEDF-derived polypeptides for promoting stem cells proliferation and wound healing” (Mackay Memorial Hospital, priority 2011, dated 2017):

B1: full-length PEDF: Native human pigment epithelium-derived factor purified from human plasma via collagen I-sepharose resin (protein, listed as Homo sapiens)
chain: MQALVLLLCIGALLGHSSCQNPASPPEEGSPDPDSTGALVEEEDPFFKVPVNKLAAAVSNFGYDLYRVRSSTSPTTNVLLSPLSVATALSALSLGAEQRTESIIHRALYYDLISSPDIHGTYKELLDTVTAPQKNLKSASRIVFEKKLRIKSSFVAPLEKSYGTRPRVLTGNPRLDLQEINNWVQAQMKGKLARSTKEIPDEISILLLGVAHFKGQWVTKFDSRKTSLEDFYLDEERTVRVPMMSDPKAVLRYGLDSDLSCKIAQLPLTGSMSIIFFLPLKVTQNLTLIEESLTSEFIHDIDRELKTVQAVLTVPKLKLSYEGEVTKSLQEMKLQSLFDSPDFSKITGKPIKLTQVEHRAGFEWNEDGAGTTPSPGLQPAHLTFPLDYHLNQPFIFVLRDTDTGALLFIGKILDPRGP

Tests used:
[1] = system: full-thickness skin excisional wounds; experiment: Skin wound healing in mice, wound area from photographs; format: in vivo, C57L/B6 mice; conditions: for residual epithelial defects, percentage of the original wound: 25 μl skin ointment with 50 μM peptide once daily
Experimental: FIG. 6A provides photographs and FIG. 6B is a histogram, and together, they illustrate the skin (epithelial) wound-healing of mice from treatment groups according to another example of the present disclosure. 4 mm punch wounds were made on the dorsal side of C57/B6 mice. Skin ointment was treated once a day. Photographs of the wounded skin and ruler (scale 10 mm) were captured with a CCD camera (Olympus). The residual epithelial defect (%) is presented as percentage of the original wound. Data are shown as mean±SE.
To perform full-thickness skin excision, 8- to 10-week-old C57L/B6 mice were respectively anesthetized by an intraperitoneal injection of a mixture of zoletil (6 mg/kg) and xylazine (3 mg/kg). Two full-thickness skin excisional wounds, 4 mm in diameter were made on either side of the dorsal midline using Sklar Tru-Punch disposable biopsy punch (Sklar, West Chester, Pa., USA). In each treatment group (n=6), the skin wound was treated with 25 μl skin ointment (containing 50 μM synthetic peptide and 0.006 μl DMSO vehicle) once daily after the skin scraping. In the control group (n=6), skin wound was treated with 25 μl of skin ointment with equal concentration of DMSO. Each gram of the above skin ointment contains 5 mg neomycin sulfate and 12.5 mg Bacitracin Zinc. Wounds were left uncovered and harvested 4 and 7 days after injury. Mice were housed individually during the healing period.
The area of wound was quantified from the photographs using a computer-assisted image analyzer (Adobe Photoshop CS3 10.0) and was calculated as the percentage of residual epithelial defect at each time point/initial wound area.

[2] = system: limbal epithelial stem cells (LSCs); experiment: In vitro LSC proliferation, BrdU pulse-labeling with ΔNp63α immunostaining; format: cell-based, New Zealand white rabbits; conditions: BrdU 2 hours; for percentage of BrdU and ΔNp63α-double positive cells per total ΔNp63α-positive cells: 25 nM peptide or 4.5 nM PEDF in medium, control medium 3.0±0.5%, mean±SEM
Description: LSCs were isolated from six-month-old New Zealand white rabbits and used for cell-suspension culture in accordance with the method previously described by Cheng et al. (The growth-promoting effect of KGF on limbal epithelial cells is mediated by upregulation of DeltaNp63alpha through the p38 pathway. J Cell Sci 2009; 122 (Pt 24): 4473-4480) and Wang et al. (Importin 13 serves as a potential marker for corneal epithelial progenitor cells. Stem Cells 2009; 27: 2516-2526) with a slight modification. Rabbit limbal tissues were washed in PBS containing 100 U/ml penicillin and 50 μg/ml gentamicin. After carefully removing the iris, and excessive sclera, the limbal rings were exposed to dispase II (1.2 IU/ml in Hanks' balanced salt solution free of Mg^2+ and Ca^2+) at 4° C. for 16 hours. The loosened epithelial sheets were removed with a cell scraper and separated into single cells by enzymatic digestion (0.05% trypsin, and 0.01% EDTA) for 15 min at 37° C. with gentle shaking and transferred to a stop medium (9 ml of HEPES-buffered DMEM containing 10% FBS). Cells were then collected by centrifugation (400×g for 5 min).
About 1×10^5 cells were seeded on each wells of a 6-well plate and incubated in a DMEM/Ham's F-12 basal medium (10 mM HEPES, 5 ng/ml human EGF, 1% SITE liquid medium, antibiotic-antimicotic solutions, 0.5% DMSO and 0.5 μg/ml hydrocortisone) supplemented with 10% FBS for 2 days, and then shifted to a basal medium or basal medium containing 4.5 nM PEDF, 25 nM 39-mer, 25 nM 34-mer, 25 nM 29-mer, 25 nM 25-mer, 25 nM 20-mer, 25 nM 18-mer, 25 nM Mo 29-mer or 25-nM Mo 20-mer. The cells were continued cultivated at 37° C. under 5% CO2 for another 3 days until they reached confluence (passage 0). LSCs were co-cultured with MMC-treated NIH-3T3 fibroblast feeder cells located within trans-well (0.4 μm pore, BD Biosciences, Bedford, Mass.). For passage purpose, near-confluent cells were harvested again by enzymatic treatment (i.e., 0.25% trypsin), and then 1×10^5 subcultured cells were further cultured in the respective medium, and proliferative capacity of cells was compared every 4 days after continuously culture-subculture (passage).
De-paraffinized tissue sections or 4% paraformaldehyde-fixed LSCs were blocked with 10% goat serum and 5% BSA in PBST (PBS containing 0.1% Tween-20) for 1 hour. Staining was done using primary antibodies against ΔNp63α (1:150 dilution), BrdU (1:250 dilution), and keratin-3 (1:250 dilution) at 37° C. for 2 hours, followed by incubation with the appropriate rhodamine- or FITC-conjugated donkey IgG (1:500 dilution) for 1 hour at RT. Nuclei were identified by counterstaining with Hoechst 33258 for 7 minutes. Images were captured using a Zeiss epifluorescence microscope with a CCD camera and photographs were taken by using the Axiovert software.
2×10^5 limbal cells (the 1st passage) were seeded at a slide coated with FNC COATING MIX® solution (Athena Enzyme Systems, Baltimore, Md.) and incubated with a culture medium for one day. BrdU (final, 10 μM) was added to the culture for 2 hours. After being fixed with 4% paraformaldehyde, cells were exposed to cold methanol for 2 minutes, and then treated with 1 N HCl at RT for 1 hour before performing immunofluorescence. For animal study, BrdU was reconstituted in DMSO as stock (80 mM). 10 μl of BrdU mixed with 90 μl of PBS was intraperitoneally injected into mouse 3 hours prior to euthanasia. DNA synthesis was assessed by BrdU labeling with anti-BrdU antibodies.

corneal wound = experiment: Corneal wound healing in mice, fluorescein staining; format: in vivo, C57BL/6 mice; conditions: for corneal re-epithelialization after 48 hours: 20 μl eye ointment with 50 μM peptide once a day, 2 mm wound; for residual epithelial defect, percentage of the original wound: 50 μM peptide eye ointment once a day
Experimental: The experiments were performed using eight-week-old female C57BL/6 mice, and the procedures were approved by the Mackay Memorial Hospital Review Board for animal investigation. Animals were anesthetized by an intraperitoneal injection of a mixture of zoletil (6 mg/kg) and xylazine (3 mg/kg). One filter paper (0.9 mm diameter) soaked with 20% ethanol was placed on the central cornea of right eye for one minute and then irrigated extensively with PBS. Subsequently, mechanical epithelial scrape was performed using a punch under a dissection microscope to create a circular injury (2 mm diameter) at the entire corneal region of the mouse eye without encroaching the corneal stroma, limbus or conjunctiva.
Each synthetic peptide (the 39-mer, 34-mer, 29-mer, 25-mer, 20-mer, 18-mer, Mo 29-mer or Mo 20-mer) was reconstituted in DMSO as stock (5 mM) and mixed with TOBREX® eye ointment (Alcon; containing 0.3% Tobramycin and 0.5% Chlorobutanol) to a concentration 50 μM. In each of the treatment group (n=6-10), the right eye was treated with 20 μl eye ointment containing the synthetic peptide once a day after the scrape injury. In the control group (n=20), right eye was treated with 20 μl of eye ointment mixed with vehicle DMSO. Wound size was determined by staining with topical fluorescein (Fluor-I-Strip, Ayerst Laboratories, Philadelphia, Pa.) and photographed with a digital camera. The area of defect was quantified from the photographs using a computer-assisted image analyzer (Adobe Photoshop CS3 10.0) and was calculated as the percentage of residual epithelial defect at each time point/initial wound area.
To investigate the effect of PEDF-derived short peptides on corneal wound healing in mice, corneal wound was created by a circular punch (2 mm diameter), then control eye-ointment or eye-ointment containing the short synthetic PEDF peptide(s) of this invention was applied to the wounded eye, and wound healing was subsequently evaluated by fluorescein staining. No significant differences in the size of the initial abrasion were noted between synthetic PEDF peptide-treated and control mice.

[3] = system: hair follicle stem cells (HFSCs); experiment: In vitro HFSC proliferation, BrdU pulse-labeling with Lgr6 immunostaining; format: cell-based, Human; conditions: 50 nM peptide or 4.5 nM PEDF in medium; BrdU 2 hours; control 31.9±5.6%
Experimental: FIG. 5A provides immunofluorescence microscopy photographs and FIG. 5B is a histogram, and together, they illustrate the in vitro proliferation of HFSCs from treatment groups according to one example of the present disclosure. HFSC proliferation was determined by BrdU labeling for 2 hours. HFSCs (Lgr6, green) and BrdU (red) were detected by immunofluorescence microscopy (original magnification, ×1000). Twenty randomly selected fields in each group were photographed, and the percentage of BrdU and Lgr6-double positive cells (pale pink) per total Lgr6-positive cells was calculated. *P<0.001 versus untreated cells.
Human hair follicles were collected from hairs of healthy donors. The follicles were dissected with tweezers under microscope and most of adipose and connective tissue was removed. The bulge region of hair follicle under the sebaceous gland was cut and then bulge fragments (including central isthmus) were transferred into a 35-mm dish containing 1 ml of collagenase A (1 mg/ml; Roche) and incubated for 1.5 hours at 37° C. to digest the collagen capsule. Subsequently, the bulge fragments were transferred into a fresh cell culture dish containing dispase II (2.4 U/ml)/0.05% trypsin and further incubated for 1.5 hours at 37° C. to obtain a single cell suspension.
After mechanical dissection and enzymatic digestion, the suspended bulge cells isolated from five bulge fragments were seeded into a well of 12-well culture plate and incubated with the basal medium for 5 days to facilitate cell adhesion. The basal medium contains four parts Gibco calcium-free Dulbecco's modified Eagle's medium (DMEM) and one part Ham's F12 medium (calcium concentration reached about 0.25 mM) and supplemented with 10% FBS, 10 ng/ml human epidermal growth factor, 500 mg/I L-glutamine, 0.2% bovine pituitary extract, […] hydrocortisone, 1% ITSE as well as antibiotic-antimicotic solutions. Cultivation method was similar to that of Blazejewska et al. (Stem Cells 2009; 27:642). After 5 days of incubation, cells were cultured in the serum-free basal medium or basal medium containing 4.5 nM PEDF, 50 nM 29-mer, or 50 nM 20-mer, until near confluence (about 2 weeks; passage 0). The medium was changed every 2 to 3 days. The bulge cells were co-cultured with 3T3 fibroblast feeder cells. For passage, near-confluent cells were harvested by enzymatic treatment (i.e., 0.25% trypsin) for 5 min at 37° C. Approximately 1×10^5 human bulge cells were transferred to a new dish and allowed to grow for 14 days to near confluence (passage 1). […]

[4] = day 4 post-injury, control 61.5±3.2%
[5] = day 7 post-injury, control 44.5±5.3%

Molecule | residual epithelial defects, percentage of the original wound [1, 4] | residual epithelial defects, percentage of the original wound [1, 5] | percentage of BrdU and ΔNp63α-double positive cells per total ΔNp63α-positive cells [2] | corneal re-epithelialization after 48 hours (corneal wound) | residual epithelial defect, percentage of the original wound (corneal wound; 24 hours, control 84.9±5.1%) | residual epithelial defect, percentage of the original wound (corneal wound; 48 hours, control 39.5±3.1%) | promotion of skin wound healing ([1]; days 4 and 7, 50 μM peptide skin ointment once daily) | enhanced LSC proliferation versus control medium ([2]; 25 nM peptide in medium) | percentage of BrdU and Lgr6-double positive cells per total Lgr6-positive cells [3]
LSVATALSALSLGAEQRTESIIHRALYYDLISSPDIHGT [39-mer, synthetic peptide, residues 83-121 of human PEDF] | 48.1±3.2% | 18.4±5.7% | 30.1±1.9% | complete corneal re-epithelialization | 37.2±4.3% | 4.8±2.7% | – | – | –
ALSALSLGAEQRTESIIHRALYYDLISSPDIHGT [34-mer, short synthetic PEDF peptide derived from the 39-mer] | 41.4±2.5% | 17.9±6.1% | 30.0±3.4% | complete corneal re-epithelialization | 40.6±7.2% | 4.6±2.1% | – | – | –
EQRTESIIHRALYYDLISSPDIHGT [25-mer] | – | – | – | incompletely healed wounds | – | – | not able to promote wound healing | enhanced proliferation was not observed | –
B1 | – | – | 22.0±1.5% | – | – | – | – | – | 73.8±6.0%
